# Source: patent publication US20100055078A1, “METHODS OF MAKING A TRANSPLANTABLE BONE REPAIR SYSTEM USING MULTIPOTENT STEM CELLS” (The Government of the U.S.A, as represented by the …, priority 2008, published 2010)
# “Also recorded” adds a separate entry of the source.
# Legend:
# Format in all cases: cell-based
# MC3T3-E1 cells = test: qRT-PCR gene expression in mineralizing cells treated with growth factor
# Protocol: Cell Culture: MC3T3-E1 cells were grown and mineralized essentially as described in Example 1.
# RNA Isolation: RNA was isolated using the RNeasy™ Mini kit (Qiagen, Valencia, Calif.) or TriReagent™ (Sigma-Aldrich, St. Louis, Mo.) according to the manufacturer's protocol.
# Reverse Transcription: 1.5 μg of RNA was added to 30 μl reverse transcriptase (RT) reaction buffer containing 5 mM MgCl2, 10 mM Tris-HCl (pH 8.3), 50 mM KCl, 1 mM dNTPs, 2.5 μM oligo d(T) primer, 2.5 U/μl of MuLV RT, and 1 U/μl of RNase inhibitor. The RT reaction was incubated at room temperature for 10 min, 42° C. for 30 min, inactivated at 99° C. for 5 min, and cooled at 5° C. for 5 min.
# Real-time Quantitative RT-PCR Reaction (qRT-PCR): 2 μl of cDNA from the RT reaction was added to 20 μl real-time quantitative polymerase chain reaction (qRT-PCR) mixture containing 10 μl of 2×SYBR® Green PCR Master Mix (Applied Biosystems, Foster City, Calif.) and 12 pmol oligonucleotide primers. PCR was carried out in a Bio-Rad MY iQ® Single-Color Real-Time PCR Detection System (Bio-Rad, Hercules, Calif.) at 50° C. for 2 min, 95° C. for 10 min to activate the Taq polymerase, followed by 50 amplification cycles, consisting of denaturation at 95° C. for 1 min 40 sec, annealing at 63° C. for 1 min 10 sec, and elongation at 72° C. for 1 min 40 sec. Fluorescence was measured and used for quantitative purposes. At the end of the amplification period, melting curve analysis was performed to confirm the specificity of the amplicon. RNA samples were normalized to a cyclophilin (CPHI) internal standard. Relative quantification of gene expression was calculated by using the 2^−(Ct gene T−Ct CPHI T)−(Ct gene 0 hr−Ct CPHI 0 hr) equation, where “Ct gene T” represents the calculated threshold cycle (Ct) of a time point of each sample other than 0 hr, or each treatment other than control. Relative gene abundance is calculated using 2^(Ct gene T−Ct CPHI T), resulting numbers were then multiplied by 10,000 for better graphical presentation. Primer sequences were previously described (Hughes-Fulford and Gilbertson, FASEB J. 13:S121-127, 1999; Hughes-Fulford et al., Gravit. Space Biol. Bull. 11:51-60, 1998; Tjandrawinata and Hughes-Fulford, Adv. Exp. Med. Biol. 407:163-170, 1997; Hughes-Fulford, Adv. Exp. Med. Biol. 400A:269-278, 1997; Hughes-Fulford and Lewis, Exp. Cell Res. 224:103-109, 1996). All data derived using qRT-PCR was from multiple experiments with triplicate independent biological samples.
# [1] = tested on: human mesenchymal stem cells (hMSC); test: Proliferation of mesenchymal stem cells, CyQuant relative cell number; conditions: of treatment
# Protocol: Mesenchymal stem cells were isolated from bone marrow by adding 50 μl ROSETTESEP® human mesenchymal stem cell enrichment cocktail (StemCell Technologies, Vancouver, BC, Canada) to each ml of bone marrow. The mixture was incubated for 20 minutes at room temperature and then diluted 2× with PBS containing 2% FBS and 1 mM EDTA. The diluted sample was layered on FICOLL-PAQUE™ (StemCell Technologies, Vancouver, BC, Canada) and centrifuged at 300×g for 25 minutes. Enriched MSCs were removed from the FICOLL-PAQUE™:plasma interface, washed with PBS containing 2% FBS and 1 mM EDTA, and resuspended in αMEM culture medium.
# Isolated MSCs were seeded to 96-well plates. […] 2,000 cells per well were seeded on 96-well plates. […] Relative cell number was obtained with a CYQUANT® Cell Proliferation kit (Invitrogen, Carlsbad, Calif.) according to the manufacturer's protocol.
# [2] = tested on: Wounded Mineralized MC3T3-E1 Cells; test: Total protein content of wounded mineralized cultures (Bio-Rad DC protein assay); conditions: normalized to the control culture; 24 hours of treatment
# Protocol: Cell culture: Cloned MC3T3-E1 osteoblasts (Kodama et al., J. Cell. Physiol. 112:89-95, 1992) were maintained in alpha MEM medium (Catalog No. MT15012CV Fisher Scientific, Pittsburgh, Pa.) containing 10% fetal bovine serum (FBS), 1% antibiotic solution and 1% glutamine solution and subcultured every 3 to 4 days. The cells were subcultured by incubating with trypsin for five minutes and resuspending at a concentration of 3×10^5 cells/ml. For experiments, cells were grown in the same medium as above, using multiwell plates (35 mm for microscopy and 22 mm for thymidine uptake studies). Each well contained a round 12 mm glass cover slip. Cultures for microscopy contained a 22 mm diameter coverslip with a 12 mm coverslip on top. After three days, the cells reached confluence and differentiation medium (DM) was added. DM was alpha MEM medium containing 10% FBS, 1% antibiotic solution and 1% glutamine solution, supplemented with ascorbic acid (50 μg/ml) and β-glycerol phosphate (10 mM) to induce mineralization. The cultures were then incubated for 9 more days. Microscopic examination was done at this time, using Von Kossa stain to confirm mineralization of the cultures. A critical defect in the mineralized cell layers was created by removing the 12 mm coverslips under sterile conditions and then incubating the cultures for an additional 24 hours in DM containing 4% FBS with IGF-1 (20 ng/ml), FGF-2 (0.2 ng/ml), PDGF (3 ng/ml), TGFβ (2 ng/ml) or PGE2 (2 μg/ml). At least triplicate independent biological samples in multiple experiments were carried out for data collection.
# Protein assay: Protein concentration was determined by Bio-Rad DC™ protein assay (Bio-Rad, Hercules, Calif.) according to the manufacturer's protocol.
# human MSCs = test: Cell migration and growth in the center of a pre-treated collagen sponge; parameters: key to Cell Growth in Sponge: One positive (+) indicates low cell number visible in the field; two positives (++) indicates a thin layer of cells visible in the field; three positives (+++) indicates many cells visible in the field
# [3] = 24 hours, FGF-2 5 ng/ml or BMP-2 100 ng/ml, corrected to cyclophilin
substance,measurement,setting,value
fibroblast growth factor-2 [FGF-2],Relative abundance of gene expression: ALP,MC3T3-E1 cells; [3],13.39
same,Relative abundance of gene expression: BMP-2,MC3T3-E1 cells; [3],**0.06
same,Relative abundance of gene expression: Collagen Type I,MC3T3-E1 cells; [3],**678.21
same,Relative abundance of gene expression: Fibronectin,MC3T3-E1 cells; [3],*28432.19
same,Relative abundance of gene expression: IGF-1,MC3T3-E1 cells; [3],**50.65
same,Relative abundance of gene expression: MMP3,MC3T3-E1 cells; [3],**4.04
same,Relative abundance of gene expression: Noggin,MC3T3-E1 cells; [3],*1.61
same,Relative abundance of gene expression: OC,MC3T3-E1 cells; [3],**1.38
same,Relative abundance of gene expression: RUNX2,MC3T3-E1 cells; [3],**674.95
same,Relative abundance of gene expression: TGFβ,MC3T3-E1 cells; [3],**245.40
same,Relative abundance of gene expression: VEGFA,MC3T3-E1 cells; [3],**5132.66
same,"expression of genes associated with mineralization (col1a1, fn, bmp-2, oc, runx2, noggin), in words",MC3T3-E1 cells; over 24 hours,significantly decreased; also recorded: significantly suppressed
same,"expression of igf-1, in words",MC3T3-E1 cells; over 24 hours,significantly decreased
same,"expression of egr-1, fgf-2, cox-2, tgfβ, mmp3, vegfA and vegfr1, in words",MC3T3-E1 cells; over a 24 hour period,dramatically induced
same,optimum dose for proliferation,[1],2.5 to 5 ng/mL
same,Total Protein/Culture,[2],1.49
same,Cell Growth in Sponge,"human MSCs; center of collagen sponge, after four days, 100 ng/ml FGF-2, 0.1 mg/ml fibrinogen, HAHp 0.3% w/w heparin with 1% hyaluronic acid",+
same,"cells observed in the collagen sponge, in words",human MSCs; pre-treated collagen sponge,Some cells were observed
